Results published in ChEMBL document CHEMBL3232749, “Exploring the water-binding pocket of the type II dehydroquinase enzyme in the structure-based design of inhibitors” (J Med Chem, 2014).

How the values were obtained:
[1] = biological target: T1, 3-dehydroquinate dehydratase (Helicobacter pylori (strain ATCC 700392 / 26695) (Campylobacterpylori), UniProt Q48255); assay: Reversible competitive inhibition of Helicobacter pylori DHQ2 assessed as conversion of 3-dehydroquinic acid to 3-dehydroshikimic acid by Dixon plot analysis
T1 sequence (Q48255 whole entry): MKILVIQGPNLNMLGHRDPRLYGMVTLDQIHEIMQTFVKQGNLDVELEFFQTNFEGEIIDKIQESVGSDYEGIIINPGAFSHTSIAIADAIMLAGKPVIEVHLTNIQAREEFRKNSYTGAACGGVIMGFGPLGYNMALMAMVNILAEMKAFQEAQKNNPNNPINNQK

[2] = Reversible competitive inhibition of Mycobacterium tuberculosis DHQ2 assessed as conversion of 3-dehydroquinic acid to 3-dehydroshikimic acid by Dixon plot analysis

## O=C(O)[C@]1(O)C=C([C@H](Cl)Cc2ccccc2)[C@@H](O)[C@H](O)C1
[1]
  Ki: 10.5 µM
[2]
  Ki: 0.48 µM

## O=C(O)[C@]1(O)C=C([C@@H](Cl)Cc2ccccc2)[C@@H](O)[C@H](O)C1
[1]
  Ki: 40.5 µM
[2]
  Ki: 14.5 µM

## O=C(O)[C@]1(O)C=C([C@H](O)Cc2ccccc2)[C@@H](O)[C@H](O)C1
[1]
  Ki: 33 µM
[2]
  Ki: 27 µM

## O=C(O)[C@]1(O)C=C(CO)[C@@H](O)[C@H](O)C1
[1]
  Ki: 282 µM
[2]
  Ki: 11.2 µM

## O=C(O)[C@]1(O)C=C([C@@H](O)Cc2ccccc2)[C@@H](O)[C@H](O)C1
[1]
  Ki: 37 µM
[2]
  Ki: 34 µM

## O=C(O)[C@]1(O)C=C(CCO)[C@@H](O)[C@H](O)C1
[1]
  Ki: 188 µM
[2]
  Ki: 15 µM
